Laboratory results: publication PMC4644980, “The FDA-approved natural product dihydroergocristine reduces the production of the Alzheimer’s disease amyloid-β peptides” (Scientific Reports, 2015)
Structures can show the parent of a compound that is named as a salt.

How the values were obtained:
γ-secretase = γ-secretase (Homo sapiens, UniProt P49768+Q92542); assay: surface plasmon resonance, γ-secretase immobilized; assay type: binding; set-up: made in house; conditions: SPR, Biacore T100, NTA chip; read-out: equilibrium dissociation constant (Kd), γ-secretase
Protocol: A Biacore sensor Chip NTA that is designed to bind His-tagged proteins was used to immobilize γ-secretase. The SPR assay was performed in a running buffer (10 mM HEPES, 150 mM NaCl in the presence of 1% DMSO, pH 7.4). The purified His-tagged γ-secretase overexpressing human PS1, Flag-Pen-2, Aph-1a2-HA, and NCT-V5/His (see above) was diluted 6 times in DMSO-free running buffer. For each binding curve, the running buffer containing 500 μM NiCl2 was first injected to saturate the NTA chip. Then, His-tagged γ-secretase was injected and immobilized on the Ni^2+ -coated sensor chip. Compounds at the indicated concentrations were injected onto the surface of the sensor chip, and the corresponding binding spectrum was recorded. The sensor chip was regenerated with regeneration buffer (10 mM HEPES, 150 mM NaCl, 350 mM EDTA, pH 8.3). Purified human NCT (100 μg) was immobilized onto the flow cell of a CM5 sensor chip in 10 mM sodium acetate (pH 4.0) by using an amine coupling kit. The SPR assay was performed in HBS-P running buffer (10 mM HEPES, 150 mM NaCl and 0.005% surfactant P20 in the presence of 1% DMSO, pH 7.4). […] The Kd values were determined with Biacore evaluation 3.1 software.

[1] = tested on: γ-secretase subunits (mNCT, PS1-NTF); assay: Western blot of γ-secretase subunits in HEK293 or fibroblast cells; assay type: cell-based
Protocol: for 10 min before adding 25 µl of the stop solution. The fluorescence was monitored with a microplate reader (emission at 590 nm after excitation at 560 nm).
Western blot and antibodies
WT HEK293 or fibroblast cells were collected and lysed in 1% Nonidet P-40-HEPES buffer, and equal amounts of proteins [normalized by BCA (Pierce)] were separated by SDS-PAGE onto a 12% Tris-glycine gel, transferred onto a PVDF membrane (Bio-Rad, USA) and further probed with antibody CT15 (for APP/APP-CTFs, 1:2000, […]
(1:1000; Abcam, Cambridge, MA, USA) for PS1-NTF, UD-1 (for Pen-2, 1:500; a gift of Dr. Helena Karlström, Karolinska Institute, Sweden), NCT164 (for NCT, 1:1000; BD Bioscience, Bedford, MA, USA) as well as with an antibody for β-actin (1:2000, Abmart). For the analysis of Notch NICD, cell extracts were separated by SDS-PAGE onto a 10% Tris-glycine gel, transferred onto a PVDF membrane and blotted for NICD with an anti-Notch Ab1744 antibody (for the free N-terminus of NICD, 1:500, Cell Signaling Technology, Beverly, MA, USA).
Samples from in vitro γ-secretase activity assays were run on 16% Tricine-SDS-PAGE gels and transferred onto PVDF to detect Aβ and AICD-Flag with 6E10 (1:1000, Covance, Berkeley, CA, USA) and CT15 antibodies (1:5000, Sigma-Aldrich), […]

CC(C)[C@@]1(NC(=O)[C@@H]2C[C@@H]3c4cccc5[nH]cc(c45)C[C@H]3N(C)C2)O[C@@]2(O)[C@@H]3CCCN3C(=O)[C@H](Cc3ccccc3)N2C1=O [DHEC, Dihydroergocristine methanesulfonate salt]
Kd (γ-secretase): 25.7 nM | assembly and maturation of the protease complex (mNCT, PS1-NTF) [1]: not altered
